1 compound from patent publication US8809275B2, “Peptoids and methods for treating alzheimer's disease” (The Board of Trustees of the University of Arkansas, priority 2011, dated 2014) can be followed below.

The target in the assay is T1, Aβ fibrils (Homo sapiens, UniProt P05067).
T1 construct: aliquots of Aβ(1-40) monomer, purified via size exclusion chromatography on Superdex 75
Put plainly: Dot blot assay with LOC antibody binding to Aβ fibrils. The class given is biochemical. The protocol: The results of the ThT assay were confirmed using a dot blot assay with antibodies capable of binding to Aβ fibrils, but not Aβ monomers or pre-fibrils (LOC, available from Millipore). Thus, reduction of signal in the dot blot as compared to control is indicative of the peptoid blocking fibril formation. The intensity of the dot blot signal detecting the binding of the LOC antibody to the Aβ fibrils after incubation with a control was set to 100% to indicate maximal fibril formation. This can then be compared to the intensity of the LOC antibody dot blot signal after incubation of the Aβ with each of the peptoids. A reduction in the percent of antibody binding is indicative of inhibition of aggregation of Aβ in the assay. […] To control for the signal being at the maximum intensity parallel samples were diluted in half with 40 mM Tris buffer before being blotted (1:2). After 2 hours of incubation, none of the peptoids were capable of inhibiting aggregation of Aβ at a 1:1 dilution, likely because the antibody signal is too saturated to detect any effect of the peptoids.

SMILES strings stand for the structures. Non-standard residues stand in square brackets, D forms with d. Residues, ends and D or L forms follow the SMILES beside them. N(1S-Me-propyl)Gly = CC[C@H](C)NCC(=O)O; Nspe = C[C@H](NCC(=O)O)c1ccccc1; Nlys = NCCCCNCC(=O)O

T1 sequence (P05067 672-711): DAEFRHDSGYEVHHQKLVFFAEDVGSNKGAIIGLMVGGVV

For the compound `CC[C@H](C)N(CC(=O)N(CC(=O)N(CC(=O)N(CC(=O)N(CC(=O)N(CC(=O)N(CC(N)=O)[C@@H](C)c1ccccc1)[C@@H](C)c1ccccc1)[C@@H](C)CC)[C@@H](C)c1ccccc1)[C@@H](C)c1ccccc1)[C@@H](C)CC)C(=O)CNCCCCN` [Peptoid 2] (H-[Nlys][N(1S-Me-propyl)Gly][N(1S-Me-propyl)Gly][Nspe][Nspe][N(1S-Me-propyl)Gly][Nspe][Nspe]-NH2), the “LOC antibody dot blot signal, percent of control (control = 100%)” value amounted to 73.03% (Time 0 hr, dilution 1:1); 56.91% (Time 0 hr, dilution 1:2); 108.61% (Time 2 hr, dilution 1:1); 89.63% (Time 2 hr, dilution 1:2).
